Laboratory results: PMC11672637, “7-O-Carboxylic Acid-Substituted 3-O-Alkyl Difluoroquercetin; An Aztreonam-Potentiating Agent Against Carbapenemase-Producing Pseudomonas aeruginosa Through Simultaneous Inhibition of Metallo-β-Lactamase and Efflux Pump” (Antibiotics, 2024)
Converted amounts (≈) assume the structure as drawn. Like-named read-outs stand apart in the source and are kept apart here.

Legend:
[1] = system: ATM-Resistant CPPA (n = 15); assay: MIC distribution over clinical isolates; type: cell-based, P. aeruginosa; details: Pseudomonas aeruginosa
[2] = system: wild-type P. aeruginosa (ATCC 27853); assay: Time–kill assay; type: cell-based; details: for Log CFU/mL, ATM + 5: 24 h
Description: Aliquots (50 μL) were taken from the incubation mixture at regular time intervals (t = 0, 3, 6, and 24 h), serially diluted in 0.85% NaCl solution, and plated on BAP. Bacterial colonies were counted, and the data are presented as the means of at least three independent experiments.

PA-009, blaGES = assay: MIC / checkerboard with ATM; type: cell-based, P. aeruginosa; details: for MIC: Pseudomonas aeruginosa, read-out: MIC of ATM with 5, PA-009
PA-016, blaIMP = assay: MIC / checkerboard with ATM; type: cell-based, P. aeruginosa; details: for MIC: Pseudomonas aeruginosa, read-out: MIC of ATM with 5, PA-016
[3] = system: ATM-Susceptible CPPA (n = 11); assay: MIC distribution over clinical isolates; type: cell-based, P. aeruginosa; details: Pseudomonas aeruginosa
PA-037, blaIMP/NDM = assay: MIC / checkerboard with ATM; type: cell-based, P. aeruginosa; details: for MIC: Pseudomonas aeruginosa, read-out: MIC of ATM with 5, PA-037
PA-038, blaNDM = assay: MIC / checkerboard with ATM; type: cell-based, P. aeruginosa; details: for MIC: Pseudomonas aeruginosa, read-out: MIC of ATM with 5, PA-038
PA-028, blaNDM = assay: MIC / checkerboard with ATM; type: cell-based, P. aeruginosa; details: for MIC: Pseudomonas aeruginosa, read-out: MIC of ATM with 5, PA-028
[4] = read-out: MIC50 of ATM, 5 at 32 mg/L
[5] = read-out: MIC50 of ATM, 5 at 64 mg/L
[6] = read-out: MIC90 of ATM, 5 at 1 mg/L
[7] = read-out: MIC90 of ATM, 5 at 2 mg/L
[8] = read-out: MIC90 of ATM, 5 at 4 mg/L
[9] = read-out: MIC90 of ATM, 5 at 8 mg/L
[10] = read-out: MIC90 of ATM, 5 at 16 mg/L
[11] = read-out: MIC90 of ATM, 5 at 32 mg/L
[12] = read-out: MIC90 of ATM, 5 at 64 mg/L

CC(C)(C)CCOc1c(-c2ccc(F)c(F)c2)oc2cc(OCC(=O)O)cc(O)c2c1=O [Compound 5, 2-((2-(3,4-Difluorophenyl)-3-(3,3-dimethylbutoxy)-5-hydroxy-4-oxo-4H-chromen-7-yl)oxy)acetic Acid]
MIC50 [1, 4]: 4 µg/mL (≈ 8.92 µM)
MIC50 [1, 5]: 4 µg/mL (≈ 8.92 µM)
MIC90 [1, 6]: 32 µg/mL (≈ 71.4 µM)
MIC90 [1, 7]: 32 µg/mL (≈ 71.4 µM)
MIC90 [1, 8]: 16 µg/mL (≈ 35.7 µM)
MIC90 [1, 9]: 16 µg/mL (≈ 35.7 µM)
MIC90 [1, 10]: 16 µg/mL (≈ 35.7 µM)
MIC90 [1, 11]: 16 µg/mL (≈ 35.7 µM)
MIC90 [1, 12]: 16 µg/mL (≈ 35.7 µM)
Diff. (ATM + 5, 24 h vs initial inoculum) ([2]; ATM 1/2 MIC + 5 at 8 mg/L): −0.04 Log CFU/mL
Diff. (ATM + 5 vs ATM only) ([2]; ATM 1/2 MIC + 5 at 8 mg/L): −3.51 Log CFU/mL
Synergistic activity, interpretation ([2]; ATM 1/2 MIC + 5 at 8 mg/L): Synergy (a ≥ 2 log10 decrease in CFU/mL for the combination of ATM and 5 compared to ATM alone after 24 h of incubation)
Log CFU/mL, ATM + 5 ([2]; ATM 1/2 MIC + 5 at 8 mg/L): 5.80 Log CFU/mL
Diff. (ATM + 5, 24 h vs initial inoculum) ([2]; ATM 1/4 MIC + 5 at 8 mg/L): −0.04 Log CFU/mL
Diff. (ATM + 5 vs ATM only) ([2]; ATM 1/4 MIC + 5 at 8 mg/L): −3.77 Log CFU/mL
Synergistic activity, interpretation ([2]; ATM 1/4 MIC + 5 at 8 mg/L): Synergy (a ≥ 2 log10 decrease in CFU/mL for the combination of ATM and 5 compared to ATM alone after 24 h of incubation)
Log CFU/mL, ATM + 5 ([2]; ATM 1/4 MIC + 5 at 8 mg/L): 5.80 Log CFU/mL
Diff. (ATM + 5, 24 h vs initial inoculum) ([2]; ATM 1 MIC + 5 at 8 mg/L): −5.57 Log CFU/mL
Diff. (ATM + 5 vs ATM only) ([2]; ATM 1 MIC + 5 at 8 mg/L): −7.75 Log CFU/mL
Synergistic activity, interpretation ([2]; ATM 1 MIC + 5 at 8 mg/L): Synergy (a ≥ 2 log10 decrease in CFU/mL for the combination of ATM and 5 compared to ATM alone after 24 h of incubation)
Log CFU/mL, ATM + 5 ([2]; ATM 1 MIC + 5 at 8 mg/L): 0.27 Log CFU/mL
Diff. (ATM + 5, 24 h vs initial inoculum) ([2]; ATM 2 MIC + 5 at 8 mg/L): −5.84 Log CFU/mL
Diff. (ATM + 5 vs ATM only) ([2]; ATM 2 MIC + 5 at 8 mg/L): −0.17 Log CFU/mL
Log CFU/mL, ATM + 5 ([2]; ATM 2 MIC + 5 at 8 mg/L): 0.00 Log CFU/mL
Activity (FICI class) (PA-009, blaGES; PA-009): S (S (Synergy, FICI ≤ 0.5))
Concentrations of ATM and 5 at lowest FICI (ATM/5) (PA-009, blaGES; PA-009): 8/8
Lowest FICI (ATM/5) (PA-009, blaGES; PA-009): 0.28
Minimum concentration of 5 to make sensitive to ATM (PA-009, blaGES; PA-009): 8 mg/L
Susceptibility to ATM (PA-009, blaGES; PA-009, ATM/5): S (S (sensitive, MIC ≤ 8 mg/L))
FD (fold decrease in MIC of ATM with 5) (PA-009, blaGES; PA-009, lowest-FICI combination): 4
MIC (PA-009, blaGES; 5 at 1 mg/L): 32 µg/mL
MIC (PA-009, blaGES; 5 at 2 mg/L): 16 µg/mL
MIC (PA-009, blaGES; 5 at 4 mg/L): 16 µg/mL
MIC (PA-009, blaGES; 5 at 8 mg/L): 8 µg/mL
MIC (PA-009, blaGES; 5 at 16 mg/L): 8 µg/mL
MIC (PA-009, blaGES; 5 at 32 mg/L): 4 µg/mL
MIC (PA-009, blaGES; 5 at 64 mg/L): 4 µg/mL
Activity (FICI class) (PA-016, blaIMP; PA-016): S (S (Synergy, FICI ≤ 0.5))
Concentrations of ATM and 5 at lowest FICI (ATM/5) (PA-016, blaIMP; PA-016): 8/8
Lowest FICI (ATM/5) (PA-016, blaIMP; PA-016): 0.27
Minimum concentration of 5 to make sensitive to ATM (PA-016, blaIMP; PA-016): 8 mg/L
Susceptibility to ATM (PA-016, blaIMP; PA-016, ATM/5): S (S (sensitive, MIC ≤ 8 mg/L))
FD (fold decrease in MIC of ATM with 5) (PA-016, blaIMP; PA-016, lowest-FICI combination): 4
MIC (PA-016, blaIMP; 5 at 1 mg/L): 32 µg/mL
MIC (PA-016, blaIMP; 5 at 2 mg/L): 16 µg/mL
MIC (PA-016, blaIMP; 5 at 4 mg/L): 16 µg/mL
MIC (PA-016, blaIMP; 5 at 8 mg/L): 8 µg/mL
MIC (PA-016, blaIMP; 5 at 16 mg/L): 8 µg/mL
MIC (PA-016, blaIMP; 5 at 32 mg/L): 4 µg/mL
MIC (PA-016, blaIMP; 5 at 64 mg/L): 4 µg/mL
MIC50 ([3]; read-out: MIC50 of ATM, 5 at 1 mg/L): 4 µg/mL (≈ 8.92 µM)
MIC50 ([3]; read-out: MIC50 of ATM, 5 at 2 mg/L): 2 µg/mL (≈ 4.46 µM)
MIC50 ([3]; read-out: MIC50 of ATM, 5 at 4 mg/L): 2 µg/mL (≈ 4.46 µM)
MIC50 ([3]; read-out: MIC50 of ATM, 5 at 8 mg/L): 2 µg/mL (≈ 4.46 µM)
MIC50 ([3]; read-out: MIC50 of ATM, 5 at 16 mg/L): 1 µg/mL (≈ 2.23 µM)
MIC50 [3, 4]: 1 µg/mL (≈ 2.23 µM)
MIC50 [3, 5]: 1 µg/mL (≈ 2.23 µM)
MIC90 [3, 6]: 8 µg/mL (≈ 17.8 µM)
MIC90 [3, 7]: 4 µg/mL (≈ 8.92 µM)
MIC90 [3, 8]: 4 µg/mL (≈ 8.92 µM)
MIC90 [3, 9]: 2 µg/mL (≈ 4.46 µM)
MIC90 [3, 10]: 2 µg/mL (≈ 4.46 µM)
MIC90 [3, 11]: 2 µg/mL (≈ 4.46 µM)
MIC90 [3, 12]: 2 µg/mL (≈ 4.46 µM)
Activity (FICI class) (PA-037, blaIMP/NDM; PA-037): S (S (Synergy, FICI ≤ 0.5))
Concentrations of ATM and 5 at lowest FICI (ATM/5) (PA-037, blaIMP/NDM; PA-037): 1/8
Lowest FICI (ATM/5) (PA-037, blaIMP/NDM; PA-037): 0.27
Susceptibility to ATM (PA-037, blaIMP/NDM; PA-037, ATM/5): S (S (sensitive, MIC ≤ 8 mg/L))
FD (fold decrease in MIC of ATM with 5) (PA-037, blaIMP/NDM; PA-037, lowest-FICI combination): 4
MIC (PA-037, blaIMP/NDM; 5 at 1 mg/L): 2 µg/mL
MIC (PA-037, blaIMP/NDM; 5 at 2 mg/L): 2 µg/mL
MIC (PA-037, blaIMP/NDM; 5 at 4 mg/L): 2 µg/mL
MIC (PA-037, blaIMP/NDM; 5 at 8 mg/L): 1 µg/mL
MIC (PA-037, blaIMP/NDM; 5 at 16 mg/L): 1 µg/mL
MIC (PA-037, blaIMP/NDM; 5 at 32 mg/L): 1 µg/mL
MIC (PA-037, blaIMP/NDM; 5 at 64 mg/L): 1 µg/mL
Activity (FICI class) (PA-038, blaNDM; PA-038): S (S (Synergy, FICI ≤ 0.5))
Concentrations of ATM and 5 at lowest FICI (ATM/5) (PA-038, blaNDM; PA-038): 4/8
Lowest FICI (ATM/5) (PA-038, blaNDM; PA-038): 0.27
Minimum concentration of 5 to make sensitive to ATM (PA-038, blaNDM; PA-038): 4 mg/L
Susceptibility to ATM (PA-038, blaNDM; PA-038, ATM/5): S (S (sensitive, MIC ≤ 8 mg/L))
FD (fold decrease in MIC of ATM with 5) (PA-038, blaNDM; PA-038, lowest-FICI combination): 4
MIC (PA-038, blaNDM; 5 at 1 mg/L): 16 µg/mL
MIC (PA-038, blaNDM; 5 at 2 mg/L): 16 µg/mL
MIC (PA-038, blaNDM; 5 at 4 mg/L): 8 µg/mL
MIC (PA-038, blaNDM; 5 at 8 mg/L): 4 µg/mL
MIC (PA-038, blaNDM; 5 at 16 mg/L): 4 µg/mL
MIC (PA-038, blaNDM; 5 at 32 mg/L): 4 µg/mL
MIC (PA-038, blaNDM; 5 at 64 mg/L): 4 µg/mL
Activity (FICI class) (PA-028, blaNDM; PA-028): S (S (Synergy, FICI ≤ 0.5))
Concentrations of ATM and 5 at lowest FICI (ATM/5) (PA-028, blaNDM; PA-028): 2/2
Lowest FICI (ATM/5) (PA-028, blaNDM; PA-028): 0.25
Susceptibility to ATM (PA-028, blaNDM; PA-028, ATM/5): S (S (sensitive, MIC ≤ 8 mg/L))
FD (fold decrease in MIC of ATM with 5) (PA-028, blaNDM; PA-028, lowest-FICI combination): 4
MIC (PA-028, blaNDM; 5 at 1 mg/L): 4 µg/mL
MIC (PA-028, blaNDM; 5 at 2 mg/L): 2 µg/mL
MIC (PA-028, blaNDM; 5 at 4 mg/L): 2 µg/mL
MIC (PA-028, blaNDM; 5 at 8 mg/L): 2 µg/mL
MIC (PA-028, blaNDM; 5 at 16 mg/L): 1 µg/mL
MIC (PA-028, blaNDM; 5 at 32 mg/L): 1 µg/mL
MIC (PA-028, blaNDM; 5 at 64 mg/L): 1 µg/mL
